Where “and” joins values, the source holds several entries; their conditions need not be identical. Equal values may be shown once.
Legend:
[1] = Kinetic thiol consumption assay with model thiol glutathione; format: physicochemical; set-up: Rate constant with glutathione (k(GSH)): unit not given here; conditions: for Rate constant with glutathione (k(GSH)): 500 μM ligand, 5 μM thiol, phosphate buffer pH 8; for Rate constant with Glutathione: Protein: Glutathione, cysteine position NA, in h-1
Procedure, shortened: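 First, 5 μM glutathione in degassed phosphate buffer (pH 8) receives immobilized TCEP beads (2% v/v). Then acrylamide is added and plates incubate 1 h at room temperature. Finally, fluorescence (380/470 nm) is normalized and fitted to first-order decay for rate constants.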

[2] = target: T1, human cyclin-dependent kinase 2 (Cdk2) (Homo sapiens, UniProt P24941); assay: Kinetic thiol consumption assay with wild type Cdk2 (C177); format: binding; set-up: key to Rate enhancement, Cdk2 WT: k(Cdk2) divided by k(model thiol); Rate constant with Cdk2 (k(Cdk2)): unit not given here; conditions: for Rate constant with Cdk2 (k(Cdk2)): 500 μM ligand, 5 μM thiol, phosphate buffer pH 8; for Rate enhancement, Cdk2 WT: no additional mutations; for Rate constant with Cdk2 WT: Protein: Cdk2, cysteine position WT, in h^-1; for k(Cdk2)/k(Cdk2_mut) rate enhancement: model thiol Cdk2[C177A, F80C, K278C]; for k(Cdk2)/k(GSH) rate enhancement: model thiol glutathione
T1 construct: poly-histidine; made in house; host or cells: E. coli
Procedure, shortened: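 His-tagged human Cdk2 from E. coli (sole surface cysteine C177) or a model thiol, each 5 μM in degassed phosphate buffer pH 8 with immobilized TCEP, reacted with acrylamides at room temperature. Fluorescence (ex 380/em 470) normalized to DMSO/thiol control over time; first-order rate constants, Cdk2 rate divided by model-thiol rate.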

[3] = target: T2, Cdk2[C177A, F80C, K278C] (Homo sapiens, UniProt P24941, C177A/F80C/K278C); assay: Kinetic thiol consumption assay with mutant Cdk2 as model thiol; format: binding; set-up: unit not given here; conditions: 500 μM ligand, 5 μM thiol, phosphate buffer pH 8
T2 construct: poly-histidine; made in house; host or cells: E. coli
Procedure, shortened: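 First-order rate constants were derived by exponential-decay fitting of DMSO/thiol-normalized fluorescence (380/470 nm) over time at room temperature. Thiol was 5 μM E. coli-expressed His-tagged Cdk2 mutant C177A/F80C/K278C in degassed pH 8 phosphate buffer containing 2% v/v TCEP beads.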

[4] = target: T3, Cdk2(C177A, F80C) (Homo sapiens, UniProt P24941, C177A/F80C); assay: Kinetic thiol consumption assay with Cdk2 mutant F80C, incl. kobs versus concentration (Kd, k2); format: binding; set-up: key to Rate enhancement, Cdk2 F80C: Cdk2 rate constant divided by model-thiol rate constant; conditions: additional mutation C177A; for Rate constant with Cdk2 F80C: Protein: Cdk2, cysteine position F80C, in h^-1
T3 construct: poly-histidine; made in house; host or cells: E. coli
Procedure, shortened: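 His-tagged Cdk2(C177A/F80C) from E. coli or model thiol, 5 μM in degassed phosphate buffer pH 8 with TCEP beads, reacted with acrylamide ligands; fluorescence (ex/em 380/470 nm) normalized to DMSO control and fitted to first-order decay for kobs. Kd and k2 obtained from hyperbolic fit of kobs versus ligand concentration.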

[5] = target: T4, Cdk2(H71C) (C177A) (Homo sapiens, UniProt P24941, C177A/H71C); assay: Kinetic thiol consumption assay with Cdk2 mutant H71C; format: binding; set-up: key to Rate enhancement, Cdk2 H71C: rate constant with Cdk2 ÷ rate constant with model thiol (fold); conditions: additional mutation C177A; for Rate constant with Cdk2 H71C: Protein: Cdk2, cysteine position H71C, in h^-1
T4 construct: poly-histidine; made in house; host or cells: E. coli
Procedure, shortened: (§1)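 Read-out is fluorescence at 380/470 nm, taken after 1 h at room temperature and normalized to a DMSO/thiol-only control over time. Thiol (5 μM Cdk2 mutant or model thiol) was in degassed pH 8 phosphate buffer with 2% v/v TCEP beads. Acrylamide rate constants for Cdk2 were divided by those with model thiol.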

[6] = target: T5, Cdk2(S276C) (C177A) (Homo sapiens, UniProt P24941, C177A/S276C); assay: Kinetic thiol consumption assay with Cdk2 mutant S276C; format: binding; set-up: key to Rate enhancement, Cdk2 S276C: rate constant with Cdk2 ÷ rate constant with model thiol (fold); conditions: additional mutation C177A; for Rate constant with Cdk2 S276C: Protein: Cdk2, cysteine position S276C, in h^-1
T5 construct: poly-histidine; made in house; host or cells: E. coli
Procedure, shortened: as §1

[7] = target: T6, Cdk2(N272C) (C177A) (Homo sapiens, UniProt P24941, C177A/N272C); assay: Kinetic thiol consumption assay with Cdk2 mutant N272C; format: binding; set-up: key to Rate enhancement, Cdk2 N272: rate constant with Cdk2 ÷ rate constant with model thiol (fold); conditions: for Rate enhancement, Cdk2 N272: Cdk2 N272, additional mutation C177A; for Rate constant with Cdk2 N272C: Protein: Cdk2, cysteine position N272C, additional mutation C177A, in h^-1
T6 construct: poly-histidine; made in house; host or cells: E. coli
Procedure, shortened: as §1

[8] = target: T7, Cdk2(T182C) (C177A) (Homo sapiens, UniProt P24941, C177A/T182C); assay: Kinetic thiol consumption assay with Cdk2 mutant T182C; format: binding; set-up: key to Rate enhancement, Cdk2 T182C: rate constant with Cdk2 ÷ rate constant with model thiol (fold); conditions: additional mutation C177A; for Rate constant with Cdk2 T182C: Protein: Cdk2, cysteine position T182C, in h^-1
T7 construct: poly-histidine; made in house; host or cells: E. coli
Procedure, shortened: as §1

[9] = target: T8, Cdk2(R122C) (C177A) (Homo sapiens, UniProt P24941, C177A/R122C); assay: Kinetic thiol consumption assay with Cdk2 mutant R122C; format: binding; set-up: key to Rate enhancement, Cdk2 R122C: rate constant with Cdk2 ÷ rate constant with model thiol (fold); conditions: additional mutation C177A; for Rate constant with Cdk2 R122C: Protein: Cdk2, cysteine position R122C, in h-1
T8 construct: poly-histidine; made in house; host or cells: E. coli
Procedure, shortened: as §1

[10] = target: T9, Cdk2(S181C) (C177A) (Homo sapiens, UniProt P24941, C177A/S181C); assay: Kinetic thiol consumption assay with Cdk2 mutant S181C; format: binding; set-up: key to Rate enhancement, Cdk2 S181C: rate constant with Cdk2 ÷ rate constant with model thiol (fold); conditions: additional mutation C177A; for Rate constant with Cdk2 S181C: Protein: Cdk2, cysteine position S181C, in h^-1
T9 construct: poly-histidine; made in house; host or cells: E. coli
Procedure, shortened: as §1

Row | Structure (SMILES) | Rate constant with glutathione (k(GSH)) [1] | Rate constant with Glutathione [1] | Rate constant with Cdk2 (k(Cdk2)) [2] | Rate enhancement, Cdk2 WT [2] | Rate constant with Cdk2 WT [2] | k(Cdk2)/k(Cdk2_mut) rate enhancement [2] | k(Cdk2)/k(GSH) rate enhancement [2] | Rate constant with Cdk2[C177A, F80C, K278C] (k(Cdk2_mut)) [3] | Rate enhancement, Cdk2 F80C [4] | Rate constant with Cdk2 F80C [4] | Rate enhancement, Cdk2 H71C [5] | Rate constant with Cdk2 H71C [5] | Rate enhancement, Cdk2 S276C [6] | Rate constant with Cdk2 S276C [6] | Rate enhancement, Cdk2 N272 [7] | Rate constant with Cdk2 N272C [7] | Rate enhancement, Cdk2 T182C [8] | Rate constant with Cdk2 T182C [8] | Rate enhancement, Cdk2 R122C [9] | Rate enhancement, Cdk2 S181C [10] | further results
1 | C=CC(=O)Nc1ccc(C(=O)c2ccccc2)cc1 [CA-219] | 0.06515 | 0.06668 | 0.2317 | 3.475 | 0.2317 | 0.3223 | 3.556 | 0.7188 | 17.8 | 1.187 | 0.5597 | 0.03732 | 1.204 | 0.08025 | 0.8368 | 0.0558 | 9.837 | 0.6559 | 0.1738 | 0.5975 | Rate constant with Cdk2 R122C [9]: 0.01159; Rate constant with Cdk2 S181C [10]: 0.03984
2 | C=CC(=O)NCCNC(=O)C1CCCN1S(=O)(=O)c1ccccc1 (stereo not shown) [CA-224] | 0.00508 | 0.003765 | 0.00155 | 0.4112 | 0.001548 | 0.4329 | 0.3045 | 0.00358 | 0.1623 | 0.000611 | 0.8417 | 0.003169 | 0.1717 | 0.0006465 | 0.5596 | 0.002107 | 1.292 | 0.004866 | 0 | 0 | –
3 | C=CC(=O)N1CCCC(N2C(=O)CC3(CCCC3)C2=O)C1 (stereo not shown) [CA-236] | 0.00506 | 0.009189 | 0.00116 | 0.1258 | 0.001156 | 0.2924 | 0.2286 | 0.00395 | 0.4074 | 0.003744 | 0.1903 | 0.001749 | 0.0707 | 0.0006497 | 0.09859 | 0.0009059 | 1.042 | 0.009576 | 0.2009 | 0.2301 | Rate constant with Cdk2 R122C [9]: 0.001846; Rate constant with Cdk2 S181C [10]: 0.002114
4 | C=CC(=O)Nc1ccccc1C(=O)c1ccccc1 [EL-1004] | 0.01818 | 0.01811 | 0.06444 | 3.558 | 0.06444 | 0.3351 | 3.545 | 0.1923 | 22.32 | 0.4042 | 2.131 | 0.03859 | 1.281 | 0.02319 | 0.4117 | 0.007455 | 7.09 | 0.1284 | 0.9845 | 0.9371 | Rate constant with Cdk2 R122C [9]: 0.01783; Rate constant with Cdk2 S181C [10]: 0.01697
5 | C=CC(=O)Nc1cccc(C(F)(F)F)c1 [EL-1007] | 0.025 and 0.02461 | 0.02462 | 0.035 and 0.03473 | 1.411 | 0.03473 | 0.5928 | 1.4 and 1.411 | 0.05859 | 1.215 | 0.02991 | 0.2924 | 0.007199 | 1.314 | 0.03236 | 0.3406 | 0.008386 | 2.5 | 0.06154 | 0.6852 | 0.487 | hit classification, Example 1 ([2]; hits defined as kCdk2/kGSH>5.8 (3 standard deviations over the mean)): negative compound; Rate constant with Cdk2 R122C [9]: 0.01687; Rate constant with Cdk2 S181C [10]: 0.01199
6 | C=CC(=O)Nc1ccccc1-c1ccccc1 [EL-1012] | 0.00837 | 0.008054 | 0.00519 | 0.6362 | 0.005124 | 0.1479 | 0.6204 | 0.03512 | 1.711 | 0.01378 | 0.3662 | 0.002949 | 0.2841 | 0.002288 | 0 | – | 2.136 | 0.0172 | 0.6595 | 0.7584 | Rate constant with Cdk2 R122C [9]: 0.005312; Rate constant with Cdk2 S181C [10]: 0.006108
7 | C=CC(=O)NCc1ccc(-c2ccccc2)cc1 [EL-1050] | 0.00204 | 0.002862 | 0.00166 | 0.579 | 0.001657 | 1.317 | 0.813 | 0.00126 | 0 | – | 0 | – | 0 | – | 0.1784 | 0.0005105 | 0.5328 | 0.001525 | 0 | 0.5143 | Rate constant with Cdk2 S181C [10]: 0.001472
